9 compounds from patent US20080275224A1, “Cyanoborate, Fluoroalkylphosphate, Fluoroalkylborate or Imide Dyes” (priority 2003, published 2008) can be followed below.

Molecules are shown by their SMILES.

A short description of data set [1]: Solubility investigations of the dyes prepared in accordance with Examples 31 to 34.
Data set [2] is described as follows: Solubility in organic solvents (statements in the description).
The nature of another data set: physchem. The following applies: water.
The mark [3] stands for this setting: acetonitrile, organic solvent or mixture, Solubility, CH3CN.
[4] abbreviates: dichloromethane, organic solvent or mixture, Solubility, CH2Cl2.
The mark [5] stands for this setting: ethanol, organic solvent or mixture, Solubility.

Turning to `CN(C)c1ccc(C(=C2C=CC(=[N+](C)C)C=C2)c2ccc(N(C)C)cc2)cc1` [Crystal Violet [B(CF3)4]^−, Crystal Violet as tetrakis(trifluoromethyl)borate], the solubility (usually the concentration that dissolves in the medium under given conditions) in data set [1] (H2O) was “insoluble”; in data set [1] (Pentane), “insoluble”; in data set [1] (setting [3]), greater than 5000 µg/mL; in data set [1] (setting [4]), greater than 10000 µg/mL; in data set [1] (setting [5]) it was greater than 10000 µg/mL.
Take `CCN(CC)c1ccc2nc3ccc(N=Nc4ccc(N(C)C)cc4)cc3[n+](-c3ccccc3)c2c1.[Cl-]` [Janus Green Cl^−, Janus Green, reference compound]: the Solubility in benzene result in data set [2] is given as “insoluble”.
On the same count and under the same terms, the result for `CCN(CC)c1ccc2nc3ccc(/N=N/c4ccc(N(C)C)cc4)cc3[n+](-c3ccccc3)c2c1` [Janus Green [(CF3SO2)2N]^−] reads “soluble”.
Take `CC[N+](CC)=c1ccc2nc3c(cc(N)c4ccccc43)oc-2c1` [Nile Blue Hydrogensulfate anion, Nile Blue hydrogensulfate, reference compound]: the Solubility in benzene entry in data set [2] is given as “insoluble”. Also, the “Solubility in dimethyl carbonate” value in data set [2] (listed as Nile Blue with hydrogensulfate as anion) is listed as “insoluble”.
Consider `CC[N+](CC)=c1ccc2nc3c(cc(N)c4ccccc43)oc-2c1` [Nile Blue [(C2F5)3PF3]^−] [Nile Blue as tris(pentafluoroethyl)trifluorophosphate], for which, in data set [2] (listed as Nile Blue FAP), the Solubility in benzene entry is “soluble” and the “Solubility in dimethyl carbonate” value is given as “readily or very readily soluble”.
Consider `CC[N+](CC)=c1ccc2nc3c(cc(N)c4ccccc43)oc-2c1` [Nile Blue [(CF3SO2)2N]^−], for which, in data set [2] (listed as Nile Blue Im), the Solubility in benzene result is “soluble” and the “Solubility in dimethyl carbonate” value is “readily or very readily soluble”.
As for `CC[N+](CC)=c1ccc2nc3c(cc(N)c4ccccc43)oc-2c1` [Nile Blue [B(CF3)4]^−, Nile Blue as tetrakis(trifluoromethyl)borate], the solubility entry in data set [1] (Pentane) is “insoluble”; in data set [1] (setting [3]) it was greater than 2000 µg/mL; in data set [1] (setting [4]) it was greater than 5000 µg/mL; in data set [1] (setting [5]), greater than 3000 µg/mL; in data set [1] (water, Solubility, H2O) it was less than 10 µg/mL. Besides, the Solubility in benzene entry in data set [2] (listed as Nile Blue FAB) is recorded as “soluble”. Further, in data set [2] (listed as Nile Blue FAB), the “Solubility in dimethyl carbonate” value is on record as “readily or very readily soluble”.
For `CC[N+](CC)=c1ccc2nc3c(cc(N)c4ccccc43)oc-2c1` [Nile Blue [B(CN)4]^−, Nile Blue as tetracyanoborate], in data set [2] (listed as Nile Blue CAB), the Solubility in benzene entry is given as “soluble” and the “Solubility in dimethyl carbonate” value is “readily or very readily soluble”.
In the data set “physchem”, `Cc1cc2nc3cc(C)c(N)cc3[n+](-c3ccccc3)c2cc1N` [Safranine O [B(CF3)4]^−, safranine O as tetrakis(trifluoromethyl)borate] had a solubility of less than 10 µg/mL.
